Reference: patent publication US20220062240A1, “METHODS OF TREATING CANCER USING A CLK INHIBITOR” (BioSplice Therapeutics, Inc., priority 2018, published 2022)
Read-outs that look alike come from different tables or passages of the source.

Legend:
[1] = molecular target: T1, CLK2 (Homo sapiens, UniProt P49760); test: CLK2 kinase activity assay (Z-lyte, Ser/Thr 6 peptide); type: biochemical
T1 construct: purchased Thermo Fisher (Life Technologies), Z'-LYTE Kinase Assay Kits
Description: All reactions were performed in duplicate.

[2] = tested on: colorectal cancer (6 cell lines); test: CellTiter-Glo Viability Assay, colorectal cancer; type: cell-based; settings: Homo sapiens
[3] = tested on: liver cancer (3 cell lines); test: CellTiter-Glo Viability Assay, liver cancer; type: cell-based; settings: Homo sapiens
[4] = molecular target: CLK3 (Homo sapiens, UniProt P49761); test: CLK3 kinase activity assay (Z-lyte, Ser/Thr 18 peptide)
CLK3, sequence (P49761 whole entry): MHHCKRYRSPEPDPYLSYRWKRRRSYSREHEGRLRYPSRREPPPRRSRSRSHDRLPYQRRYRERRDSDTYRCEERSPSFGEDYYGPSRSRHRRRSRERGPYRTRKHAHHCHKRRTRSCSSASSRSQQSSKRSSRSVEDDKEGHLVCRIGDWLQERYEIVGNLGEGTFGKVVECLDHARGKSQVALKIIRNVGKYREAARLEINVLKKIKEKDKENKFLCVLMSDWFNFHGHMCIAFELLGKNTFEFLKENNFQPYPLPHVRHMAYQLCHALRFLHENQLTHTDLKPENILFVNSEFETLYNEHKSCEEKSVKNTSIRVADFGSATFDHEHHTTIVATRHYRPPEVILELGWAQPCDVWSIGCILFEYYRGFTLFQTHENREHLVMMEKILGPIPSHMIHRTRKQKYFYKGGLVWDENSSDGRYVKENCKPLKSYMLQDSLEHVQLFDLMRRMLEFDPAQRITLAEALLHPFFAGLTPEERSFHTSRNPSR

[5] = tested on: pancreatic cancer (8 cell lines); test: CellTiter-Glo Viability Assay, pancreatic cancer; type: cell-based; settings: Homo sapiens
[6] = tested on: ovarian cancer (4 cell lines); test: CellTiter-Glo Viability Assay, ovarian cancer; type: cell-based; settings: Homo sapiens
[7] = tested on: haematopoietic & lymphoid tumors (13 cell lines); test: CellTiter-Glo Viability Assay, haematopoietic & lymphoid tumors; type: cell-based; settings: Homo sapiens
[8] = tested on: prostate cancer (5 cell lines); test: CellTiter-Glo Viability Assay, prostate cancer; type: cell-based; settings: Homo sapiens
[9] = tested on: MCF7; test: CellTiter-Glo Viability Assay, breast cancer; type: cell-based; settings: Homo sapiens, MCF7, 96 h
[10] = tested on: DU4475; test: CellTiter-Glo Viability Assay, breast cancer; type: cell-based; settings: Homo sapiens, DU-4475, 96 h
[11] = tested on: HCC1599; test: CellTiter-Glo Viability Assay, breast cancer; type: cell-based; settings: Homo sapiens, HCC1599, 96 h
[12] = tested on: T47D; test: CellTiter-Glo Viability Assay, breast cancer; type: cell-based; settings: Homo sapiens, 96 h
[13] = tested on: MDA-MB-231-Luc; test: CellTiter-Glo Viability Assay, breast cancer; type: cell-based; settings: Homo sapiens, 96 h
[14] = tested on: CAMA1; test: CellTiter-Glo Viability Assay, breast cancer; type: cell-based; settings: Homo sapiens, CAMA-1, 96 h
[15] = tested on: BT-549; test: CellTiter-Glo Viability Assay, breast cancer; type: cell-based; settings: Homo sapiens, BT-549, 96 h
[16] = tested on: ZR-75-1; test: CellTiter-Glo Viability Assay, breast cancer; type: cell-based; settings: Homo sapiens, ZR-75-1, 96 h
[17] = tested on: lung cancer (4 cell lines); test: CellTiter-Glo Viability Assay, lung cancer; type: cell-based; settings: Homo sapiens
[18] = tested on: all 50 cell lines; test: CellTiter-Glo Viability Assay, average across all cell lines; type: cell-based; settings: Homo sapiens, read-out: average EC50 for inhibition of cancer cell proliferation
Outline: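 Cancer cell lines of several tumour types plated at 300-3,000 cells/well and exposed to compound in duplicate for four days at 37° C, 5% CO2, with DMSO-treated controls. Viability read by CellTiter-Glo luminescence (ATP content); EC50 derived from dose-response curves.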

T1 sequence (P49760 whole entry): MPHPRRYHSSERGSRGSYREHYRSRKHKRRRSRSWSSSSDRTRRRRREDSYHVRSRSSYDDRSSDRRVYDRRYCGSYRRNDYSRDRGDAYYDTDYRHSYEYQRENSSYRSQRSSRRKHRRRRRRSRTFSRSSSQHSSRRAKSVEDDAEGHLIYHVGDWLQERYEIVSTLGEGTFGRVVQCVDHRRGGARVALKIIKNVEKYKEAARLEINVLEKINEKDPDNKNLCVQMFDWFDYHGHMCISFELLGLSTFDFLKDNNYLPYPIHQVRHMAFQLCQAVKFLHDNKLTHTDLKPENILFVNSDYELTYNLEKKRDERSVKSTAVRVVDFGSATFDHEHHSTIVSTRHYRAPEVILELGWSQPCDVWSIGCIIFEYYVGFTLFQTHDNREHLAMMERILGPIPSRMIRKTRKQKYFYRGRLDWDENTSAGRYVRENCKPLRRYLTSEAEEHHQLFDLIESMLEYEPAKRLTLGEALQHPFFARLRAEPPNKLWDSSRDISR

## CN1CCC(N(C)c2cc(C(=O)Nc3cc4cc(-c5cnn(C)c5)ccc4cn3)ccn2)CC1 [Compound 72]
[1]
  EC50: 1.3 nM
[2]; DLD-1, read-out: Colorectal cancer, EC50 (μM) DLD-1
  EC50: 0.157 µM
[2]; HCT-116, read-out: Colorectal cancer, EC50 (μM) HCT116
  EC50: 0.103 µM
[2]; HT-29, read-out: Colorectal cancer, EC50 (μM) HT29
  EC50: 0.257 µM
[2]; SW48, read-out: Colorectal cancer, EC50 (μM) SW48
  EC50: 0.057 µM
[2]; SW480, read-out: Colorectal cancer, EC50 (μM) SW480
  EC50: 0.129 µM
[2]; SW-620, read-out: Colorectal cancer, EC50 (μM) SW620
  EC50: 0.072 µM
[3]; HepG2, read-out: Liver cancer, EC50 HEPG2
  EC50: 136 nM
[3]; PLC-PRF-5, read-out: Liver cancer, EC50 PLC/PRF/5
  EC50: 386 nM
[3]; SNU-398, read-out: Liver cancer, EC50 SNU398
  EC50: 51 nM
[4]
  EC50: 19.9 nM
[5]; BXPC-3, read-out: Pancreatic cancer, EC50 BxPC3
  EC50: 310 nM
[5]; CAPAN-1, read-out: Pancreatic cancer, EC50 Capan1
  EC50: 215 nM
[5]; Capan-2, read-out: Pancreatic cancer, EC50 Capan2
  EC50: 409 nM
[5]; MIA PaCa-2, read-out: Pancreatic cancer, EC50 MIA PaCa-2
  EC50: 88 nM
[5]; PANC-1, read-out: Pancreatic cancer, EC50 PANC-1
  EC50: 276 nM
[5]; Panc 05.04, read-out: Pancreatic cancer, EC50 PANC 05.04
  EC50: 226 nM
[5]; read-out: Pancreatic cancer, EC50 UPAFII
  EC50: 125 nM
[6]; OV-90, read-out: Ovarian cancer, EC50 (μM) OV-90
  EC50: 0.317 µM
[6]; OVCAR-3, read-out: Ovarian cancer, EC50 (μM) OVCAR-3
  EC50: 0.095 µM
[6]; PA-1, read-out: Ovarian cancer, EC50 (μM) PA1
  EC50: 0.154 µM
[6]; TOV112D, read-out: Ovarian cancer, EC50 (μM) TOV-112D
  EC50: 0.106 µM
[7]; DND41, read-out: Haematopoietic & Lymphoid tumors, EC50 (μM) DND-41
  EC50: 0.167 µM
[7]; HL-60, read-out: Haematopoietic & Lymphoid tumors, EC50 (μM) HL-60
  EC50: 0.453 µM
[7]; JM1, read-out: Haematopoietic & Lymphoid tumors, EC50 (μM) JM1
  EC50: 0.047 µM
[7]; JeKo-1, read-out: Haematopoietic & Lymphoid tumors, EC50 (μM) JeKo-1
  EC50: 0.054 µM
[7]; Jurkat, read-out: Haematopoietic & Lymphoid tumors, EC50 (μM) JURKAT, Clone E6-1
  EC50: 0.337 µM
[7]; Kasumi 1, read-out: Haematopoietic & Lymphoid tumors, EC50 (μM) KASUMI-1
  EC50: 0.13 µM
[7]; MOLT-4, read-out: Haematopoietic & Lymphoid tumors, EC50 (μM) MOLT-4
  EC50: 0.189 µM
[7]; MV4-11, read-out: Haematopoietic & Lymphoid tumors, EC50 (μM) MV-4-11
  EC50: 0.049 µM
[7]; Rec1, read-out: Haematopoietic & Lymphoid tumors, EC50 (μM) REC-1
  EC50: 0.049 µM
[7]; SU-DHL-4, read-out: Haematopoietic & Lymphoid tumors, EC50 (μM) SUDHL4
  EC50: 0.229 µM
[7]; TF-1, read-out: Haematopoietic & Lymphoid tumors, EC50 (μM) TF-1
  EC50: 0.314 µM
[7]; Toledo, read-out: Haematopoietic & Lymphoid tumors, EC50 (μM) TOLEDO
  EC50: 0.057 µM
[7]; read-out: Haematopoietic & Lymphoid tumors, EC50 (μM) Loucy
  EC50: 0.139 µM
[8]; 22Rv1, read-out: Prostate cancer EC50 22Rv1
  EC50: 142 nM
[8]; DU-145, read-out: Prostate cancer EC50 Du-145
  EC50: 232 nM
[8]; LNCaP-Clone-FGC, read-out: Prostate cancer EC50 LNCap clone FGC
  EC50: 257 nM
[8]; PC-3, read-out: Prostate cancer EC50 PC3
  EC50: 174 nM
[8]; VCaP, read-out: Prostate cancer EC50 VCaP (Sigma)
  EC50: 509 nM
[9]
  EC50: 670 nM
[10]
  EC50: 121 nM
[11]
  EC50: 147 nM
[12]
  EC50: 506 nM
[13]
  EC50: 230 nM
[14]
  EC50: 294 nM
[15]
  EC50: 186 nM
[16]
  EC50: 284 nM
[17]; A-427, read-out: Lung cancer, EC50 (μM) A427
  EC50: 0.136 µM
[17]; HCC78, read-out: Lung cancer, EC50 (μM) HCC-78
  EC50: 0.211 µM
[17]; NCI-H460, read-out: Lung cancer, EC50 (μM) NCI-H460
  EC50: 0.207 µM
[17]; NCI-H522, read-out: Lung cancer, EC50 (μM) NCI-H522
  EC50: 0.119 µM
[18]
  EC50: 206 nM
